Measured values reported in patent US8283361B2 (AstraZeneca AB, priority 2008, dated 2012).
Where “and” joins values, the source holds several entries; their conditions need not be identical. Identical values can stand only once. Counter-ions that a name gives are not always drawn.

Biological target: S. aureus GyrB ATPase (Staphylococcus aureus, UniProt P0A0K8)
Experiment: biochemical
Settings: compound at 1 μM; one value per test if tested more than once; 1 µM
Procedure, shortened: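 IC50 values derive from 10-point titrations of compound (in DMSO). Phosphate formed from 250 μM ATP was quantified by acidic molybdate/malachite green after quenching.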

S. aureus GyrB ATPase, sequence (P0A0K8 whole entry): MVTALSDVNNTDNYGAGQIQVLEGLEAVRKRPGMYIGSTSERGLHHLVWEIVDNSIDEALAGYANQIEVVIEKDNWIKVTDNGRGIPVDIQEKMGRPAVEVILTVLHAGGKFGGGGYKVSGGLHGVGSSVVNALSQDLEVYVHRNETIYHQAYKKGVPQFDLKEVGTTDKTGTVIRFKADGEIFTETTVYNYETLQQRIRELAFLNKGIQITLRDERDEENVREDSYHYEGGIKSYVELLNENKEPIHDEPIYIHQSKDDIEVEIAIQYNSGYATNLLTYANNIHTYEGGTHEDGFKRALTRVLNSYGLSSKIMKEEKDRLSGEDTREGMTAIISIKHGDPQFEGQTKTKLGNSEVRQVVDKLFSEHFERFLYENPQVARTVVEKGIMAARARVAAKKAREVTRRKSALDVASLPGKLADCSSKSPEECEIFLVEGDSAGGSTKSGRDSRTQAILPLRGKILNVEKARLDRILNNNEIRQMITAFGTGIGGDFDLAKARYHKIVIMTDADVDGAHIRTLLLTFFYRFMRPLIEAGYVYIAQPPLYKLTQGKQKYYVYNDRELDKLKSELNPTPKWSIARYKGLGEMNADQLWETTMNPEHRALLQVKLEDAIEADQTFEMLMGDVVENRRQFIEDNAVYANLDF
S. aureus GyrB ATPase, sequence (P0AES4 whole entry, further chain): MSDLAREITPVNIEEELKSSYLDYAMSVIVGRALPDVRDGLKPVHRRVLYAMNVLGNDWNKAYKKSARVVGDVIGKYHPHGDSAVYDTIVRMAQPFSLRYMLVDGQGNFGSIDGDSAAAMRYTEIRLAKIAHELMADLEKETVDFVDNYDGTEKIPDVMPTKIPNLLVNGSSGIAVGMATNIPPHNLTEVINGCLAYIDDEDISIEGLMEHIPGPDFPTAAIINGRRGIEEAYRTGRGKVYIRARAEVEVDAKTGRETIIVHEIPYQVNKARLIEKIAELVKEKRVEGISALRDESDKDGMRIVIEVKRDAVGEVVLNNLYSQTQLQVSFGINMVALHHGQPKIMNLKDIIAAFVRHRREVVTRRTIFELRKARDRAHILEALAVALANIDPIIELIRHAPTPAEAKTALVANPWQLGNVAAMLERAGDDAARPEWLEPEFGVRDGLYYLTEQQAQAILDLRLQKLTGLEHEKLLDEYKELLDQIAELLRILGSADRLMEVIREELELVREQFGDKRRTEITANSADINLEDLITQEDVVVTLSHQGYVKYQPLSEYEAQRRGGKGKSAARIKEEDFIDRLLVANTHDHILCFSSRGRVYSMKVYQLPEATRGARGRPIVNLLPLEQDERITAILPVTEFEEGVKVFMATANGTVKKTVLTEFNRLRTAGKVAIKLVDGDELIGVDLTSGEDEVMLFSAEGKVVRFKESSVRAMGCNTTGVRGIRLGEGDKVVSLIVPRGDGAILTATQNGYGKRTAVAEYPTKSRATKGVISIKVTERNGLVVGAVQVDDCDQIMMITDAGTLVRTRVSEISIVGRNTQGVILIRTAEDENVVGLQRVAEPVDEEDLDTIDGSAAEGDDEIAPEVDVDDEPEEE

SMILES | % Inhibition of S. aureus GyrB ATPase
CCCNC(=O)Nc1cc(-c2nc(C(F)(F)F)cs2)c(-c2ccc3c(c2)c(=O)c(C(=O)O)cn3CCN(C)C)cn1 [Example 152, 1-(2-(dimethylamino)ethyl)-4-oxo-6-(6-(3-propylureido)-4-(4-(trifluoromethyl)thiazol-2-yl)pyridin-3-yl)-1,4-dihydroquinoline-3-carboxylic acid] | 106%
CCNC(=O)Nc1cc(-c2nc(C(F)(F)F)cs2)c(-c2ccc3c(c2)c(=O)c(C(=O)O)cn3CC2CCN(CCN3CCOCC3)C2)cn1 (centres unmarked) [Example 306, 6-(6-(3-ethylureido)-4-(4-(trifluoromethyl)thiazol-2-yl)pyridin-3-yl)-1-((1-(2-morpholinoethyl)pyrrolidin-3-yl)methyl)-4-oxo-1,4-dihydroquinoline-3-carboxylic acid] | 100% and 102%

Same assay, conditions: compound at 1 μM; one value per test if tested more than once; read-out: % Inhibition of S. aureus GyrB ATPase

SMILES | inhibition at 1 µM [%]
CCNC(=O)Nc1cc(-c2nc(C(F)(F)F)cs2)c(-c2ccc3c(c2)c(=O)c(C(=O)O)cn3CC2CCOCC2)cn1 [Example 90, 6-(6-(3-ethylureido)-4-(4-(trifluoromethyl)thiazol-2-yl)pyridin-3-yl)-4-oxo-1-((tetrahydro-2H-pyran-4-yl)methyl)-1,4-dihydroquinoline-3-carboxylic acid] | 97
CCNC(=O)Nc1cc(-c2nc(C(F)(F)F)cs2)c(-c2ccc3c(c2)c(=O)c(C(=O)O)cn3[C@@H]2CCCN(CCS(C)(=O)=O)C2)cn1 [Example 281, (R)-ethyl 6-(6-(3-ethylureido)-4-(4-(trifluoromethyl)thiazol-2-yl)pyridin-3-yl)-1-(1-(2-(methylsulfonyl)ethyl)piperidin-3-yl)-4-oxo-1,4-dihydroquinoline-3-carboxylic acid] | 106
CCNC(=O)Nc1cc(-c2nc(C(F)(F)F)cs2)c(-c2ccc3c(c2)c(=O)c(C(=O)O)cn3CC2CCCCN2)cn1 (centres unmarked) [Example 123, 6-(6-(3-ethylureido)-4-(4-(trifluoromethyl)thiazol-2-yl)pyridin-3-yl)-4-oxo-1-(piperidin-2-ylmethyl)-1,4-dihydroquinoline-3-carboxylic acid] | 95
CCNC(=O)Nc1cc(-c2nc(C(F)(F)F)cs2)c(-c2ccc3c(c2)c(=O)c(C(=O)O)cn3C2CC2)cn1 [Example 20, 1-Cyclopropyl-6-(6-(3-ethylureido)-4-(4-(trifluoromethyl)thiazol-2-yl)pyridin-3-yl)-4-oxo-1,4-dihydroquinoline-3-carboxylic acid] | 96
CCNC(=O)Nc1cc(-c2nc(C(F)(F)F)cs2)c(-c2ccc3c(c2)c(=O)c(C(=O)N2CCN(C)CC2)cn3CCN(C)C)cn1 [Example 155, 1-(5-(1-(2-(dimethylamino)ethyl)-3-(4-methylpiperazine-1-carbonyl)-4-oxo-1,4-dihydroquinolin-6-yl)-4-(4-(trifluoromethyl)thiazol-2-yl)pyridin-2-yl)-3-ethylurea] | 94
CCCNC(=O)Nc1cc(-c2nc(C(F)(F)F)cs2)c(-c2ccc3c(c2)c(=O)c(C(=O)N2CCNCC2)cn3C2CN(C)C2)cn1 [Example 166, 1-(5-(1-(1-methylazetidin-3-yl)-4-oxo-3-(piperazine-1-carbonyl)-1,4-dihydroquinolin-6-yl)-4-(4-(trifluoromethyl)thiazol-2-yl)pyridin-2-yl)-3-propylurea] | 104
CCNC(=O)Nc1cc(-c2nc(C(F)(F)F)cs2)c(-c2ccc3c(=O)c(C(=O)NCCN4CCOCC4)cn(CC4CC4)c3c2)cn1 [Example 378, 1-(Cyclopropylmethyl)-7-{6-[(ethylcarbamoyl)amino]-4-[4-(trifluoromethyl)-1,3-thiazol-2-yl]pyridin-3-yl}-N-[2-(morpholin-4-yl)ethyl]-4-oxo-1,4-dihydroquinoline-3-carboxamide] | 107
CCNC(=O)Nc1cc(-c2nc(C(F)(F)F)cs2)c(-c2ccc3c(c2)c(=O)c(C(=O)N2CCN(CCO)CC2)cn3C(COC)COC)cn1 [Example 141, 1-{5-[1-(1,3-dimethoxypropan-2-yl)-3-{[4-(2-hydroxyethyl)piperazin-1-yl]carbonyl}-4-oxo-1,4-dihydroquinolin-6-yl]-4-[4-(trifluoromethyl)-1,3-thiazol-2-yl]pyridin-2-yl}-3-ethylurea] | 97
CCNC(=O)Nc1cc(-c2nc(C(F)(F)F)cs2)c(-c2ccc3c(=O)c(C(=O)NCCO)cn(CC4CC4)c3c2)cn1 [Example 375, 1-(Cyclopropylmethyl)-7-{6-[(ethylcarbamoyl)amino]-4-[4-(trifluoromethyl)-1,3-thiazol-2-yl]pyridin-3-yl}-N-(2-hydroxyethyl)-4-oxo-1,4-dihydroquinoline-3-carboxamide] | 99
CCNC(=O)Nc1cc(-c2nc(C(F)(F)F)cs2)c(-c2ccc3c(=O)c(C(=O)NCCN(C)C)cn(CC(C)C)c3c2)cn1 [Example 344, N-[2-(dimethylamino)ethyl]-7-{6-[(ethylcarbamoyl)amino]-4-[4-(trifluoromethyl)-1,3-thiazol-2-yl]pyridin-3-yl}-1-(2-methylpropyl)-4-oxo-1,4-dihydroquinoline-3-carboxamide] | 95
CCNC(=O)Nc1cc(-c2nc(C(F)(F)F)cs2)c(-c2ccc3c(c2)c(=O)c(C(=O)O)cn3C(C)CN(C)C)cn1 (centres unmarked) [Example 126, 1-(1-(dimethylamino)propan-2-yl)-6-(6-(3-ethylureido)-4-(4-(trifluoromethyl)thiazol-2-yl)pyridin-3-yl)-4-oxo-1,4-dihydroquinoline-3-carboxylic acid] | 117
CCNC(=O)Nc1cc(-c2nc(C(F)(F)F)cs2)c(-c2ccc3c(c2)c(=O)c(C(=O)N2CCN(C)CC2)cn3C(COC)COC)cn1 [Example 143, 1-(5-{1-(1,3-dimethoxypropan-2-yl)-3-[(4-methylpiperazin-1-yl)carbonyl]-4-oxo-1,4-dihydroquinolin-6-yl}-4-[4-(trifluoromethyl)-1,3-thiazol-2-yl]pyridin-2-yl)-3-ethylurea] | 95
CCNC(=O)Nc1cc(-c2nc(C(F)(F)F)cs2)c(-c2ccc3c(=O)c(C(=O)NCCCO)cn(CCOC)c3c2)cn1 [Example 371, 7-{6-[(Ethylcarbamoyl)amino]-4-[4-(trifluoromethyl)-1,3-thiazol-2-yl]pyridin-3-yl}-N-(3-hydroxypropyl)-1-(2-methoxyethyl)-4-oxo-1,4-dihydroquinoline-3-carboxamide] | 98
CCNC(=O)Nc1cc(-c2nc(C(F)(F)F)cs2)c(-c2ccc3c(c2)c(=O)c(C(=O)O)cn3[C@@H]2CCN(C)C2)cn1 [Example 246, (R)-6-(6-(3-ethylureido)-4-(4-(trifluoromethyl)thiazol-2-yl)pyridin-3-yl)-1-(1-methylpyrrolidin-3-yl)-4-oxo-1,4-dihydroquinoline-3-carboxylic acid] | 104
CCCNC(=O)Nc1cc(-c2nc(C(F)(F)F)cs2)c(-c2ccc3c(c2)c(=O)c(C(=O)O)cn3CCN(C)C)cn1 [Example 152, 1-(2-(dimethylamino)ethyl)-4-oxo-6-(6-(3-propylureido)-4-(4-(trifluoromethyl)thiazol-2-yl)pyridin-3-yl)-1,4-dihydroquinoline-3-carboxylic acid] | 95
CCCNC(=O)Nc1cc(-c2nc(C(F)(F)F)cs2)c(-c2ccc3c(c2)c(=O)c(C(=O)N2CCN(C)CC2)cn3CCN(C)C)cn1 [Example 156, 1-(5-(1-(2-(dimethylamino)ethyl)-3-(4-methylpiperazine-1-carbonyl)-4-oxo-1,4-dihydroquinolin-6-yl)-4-(4-(trifluoromethyl)thiazol-2-yl)pyridin-2-yl)-3-propylurea] | 105
CCNC(=O)Nc1cc(-c2nc(C(F)(F)F)cs2)c(-c2ccc3c(c2)c(=O)c(C(=O)NC)cn3CC)cn1 [Example 34, 1-ethyl-6-(6-(3-ethylureido)-4-(4-(trifluoromethyl)thiazol-2-yl)pyridin-3-yl)-N-methyl-4-oxo-1,4-dihydroquinoline-3-carboxamide] | 100
CCNC(=O)Nc1cc(-c2nc(C(F)(F)F)cs2)c(-c2ccc3c(c2)c(=O)c(C(=O)O)cn3CC2CCN(CC)C2)cn1 (centres unmarked) [Example 305, 1-((1-ethylpyrrolidin-3-yl)methyl)-6-(6-(3-ethylureido)-4-(4-(trifluoromethyl)thiazol-2-yl)pyridin-3-yl)-4-oxo-1,4-dihydroquinoline-3-carboxylic acid] | 103
CCNC(=O)Nc1cc(-c2nc(C(F)(F)F)cs2)c(-c2ccc3c(=O)c(C(=O)NCCO)cn(CC)c3c2)cn1 [Example 330, 1-Ethyl-7-{6-[(ethylcarbamoyl)amino]-4-[4-(trifluoromethyl)-1,3-thiazol-2-yl]pyridin-3-yl}-N-(2-hydroxyethyl)-4-oxo-1,4-dihydroquinoline-3-carboxamide] | 109
CC(C)NC(=O)Nc1cc(-c2nc(C(F)(F)F)cs2)c(-c2ccc3c(c2)c(=O)c(C(=O)NCCO)cn3C2CCOCC2)cn1 [Example 210, N-(2-hydroxyethyl)-6-(6-(3-isopropylureido)-4-(4-(trifluoromethyl)thiazol-2-yl)pyridin-3-yl)-4-oxo-1-(tetrahydro-2H-pyran-4-yl)-1,4-dihydroquinoline-3-carboxamide] | 93
CCCNC(=O)Nc1cc(-c2nc(C(F)(F)F)cs2)c(-c2ccc3c(c2)c(=O)c(C(=O)O)cn3CCN2CCOCC2)cn1 [Example 193, 1-(2-morpholinoethyl)-4-oxo-6-(6-(3-propylureido)-4-(4-(trifluoromethyl)thiazol-2-yl)pyridin-3-yl)-1,4-dihydroquinoline-3-carboxylic acid] | 93
CCNC(=O)Nc1cc(-c2nc(C(F)(F)F)cs2)c(-c2ccc3c(c2)c(=O)c(C(=O)O)cn3CC2CCN(CCO)C2)cn1 (centres unmarked) [Example 308, 6-(6-(3-ethylureido)-4-(4-(trifluoromethyl)thiazol-2-yl)pyridin-3-yl)-1-((1-(2-hydroxyethyl)pyrrolidin-3-yl)methyl)-4-oxo-1,4-dihydroquinoline-3-carboxylic acid hydrochloride] | 111
CCNC(=O)Nc1cc(-c2nc(C(F)(F)F)cs2)c(-c2ccc3c(c2)c(=O)c(C(=O)O)cn3CC2CCN(CCN3CCOCC3)C2)cn1 (centres unmarked) [Example 306, 6-(6-(3-ethylureido)-4-(4-(trifluoromethyl)thiazol-2-yl)pyridin-3-yl)-1-((1-(2-morpholinoethyl)pyrrolidin-3-yl)methyl)-4-oxo-1,4-dihydroquinoline-3-carboxylic acid] | 105
CCNC(=O)Nc1cc(-c2nc(C(F)(F)F)cs2)c(-c2ccc3c(c2)c(=O)c(C(=O)O)cn3[C@@H](CO)C(C)C)cn1 [Example 85, (R)-6-(6-(3-ethylureido)-4-(4-(trifluoromethyl)thiazol-2-yl)pyridin-3-yl)-1-(1-hydroxy-3-methylbutan-2-yl)-4-oxo-1,4-dihydroquinoline-3-carboxylic acid] | 96
